Consider five molecules from ChEMBL document CHEMBL1158583, “3-(2-Aminocarbonylphenyl)propanoic acid analogs as potent and selective EP3 receptor antagonists. Part 3: Synthesis, metabolic stability, and biological evaluation of optically active analogs” (Bioorg Med Chem, 2010).

Data set [1] in a line: (§1) Volume of distribution at steady state in rat at […], iv. Type of data set: ADME, organism-based. More on the design: dose 2.7 mg/kg, route intravenous. Conditions: in vivo, read-out: Vdss.
Data set [2] can be described thus: (§2) AUC in rat at 10 mg/kg, po. It counts as ADME, organism-based, Plasma. The following applies: plasma. On the set-up: dose 10 mg/kg, route oral.
Data set [3] can be described thus: (§3) AUC in rat at […], iv. It counts as ADME, organism-based. More on the design: dose 2.7 mg/kg, route intravenous. The following applies: plasma.
Data set [4] is described as follows: (§4) Oral bioavailability in rat at 10 mg/kg. Type of data set: ADME, organism-based. Conditions: in vivo.
A short description of data set [5]: as §3. It counts as ADME, organism-based. More on the design: dose 1.2 mg/kg, route intravenous. Conditions: plasma.
Data set [6] can be described thus: as §1. It counts as ADME, organism-based. On the set-up: dose 1.2 mg/kg, route intravenous. Conditions: in vivo, read-out: Vdss.
Data set [7] can be described thus: Cmax in rat at 10 mg/kg, po. It counts as ADME, organism-based. On the set-up: dose 10 mg/kg, route oral. Conditions: in vivo.
Data set [8] can be described thus: as §3. On the set-up: dose 1.8 mg/kg, route intravenous. The following applies: plasma. Type of data set: ADME, organism-based.
Data set [9] is described as follows: as §1. Type of data set: ADME, organism-based. More on the design: dose 1.8 mg/kg, route intravenous. The following applies: in vivo, read-out: Vdss.
Data set [10] is described as follows: (§5) AUC in rat at 2 mg/kg, iv. More on the design: dose 2 mg/kg, route intravenous. Type of data set: ADME, organism-based, Plasma. The following applies: plasma.
A short description of data set [11]: Volume of distribution at steady state in rat at 2 mg/kg, iv. It counts as ADME, organism-based. More on the design: dose 2 mg/kg, route intravenous. The following applies: in vivo, read-out: Vdss.
Data set [12] concerns Rattus norvegicus. Described as §5. The following applies: in vivo. Type of data set: ADME, organism-based, Plasma. On the set-up: dose 2 mg/kg, route intravenous.
For data set [13], the system named is Rattus norvegicus. The description is as §2. Type of data set: ADME, organism-based, Plasma. On the set-up: dose 10 mg/kg, route oral. Conditions: in vivo.
Data set [14] relates to Rattus norvegicus. Described as §4. Type of data set: ADME, organism-based. The following applies: in vivo.

For orientation: AUC means concentration integrated over time. Read a high AUC as more exposure. Broadly, the bioavailability is the share of a dose that reaches the circulation, judged against a reference dose that is usually intravenous. Read a low bioavailability as little systemic uptake. In general, Cmax refers to the highest concentration seen after dosing.

With `Cc1cc(C)cc([C@@H](CC(C)C)NC(=O)c2cc(COc3ccccc3C)ccc2CCC(=O)O)c1`, in data set [1], the Vd came out at 1.24 L/kg. Further, the AUC turned out to be 1010 ng·h/mL in data set [2] and 890 ng·h/mL in data set [3].

The molecule `Cc1cc(C)cc([C@@H](CC(C)C)NC(=O)c2cc(COc3cc(F)ccc3F)ccc2CCC(=O)O)c1` gave a bioavailability in data set [4] of 18%. The molecule also showed an AUC in [5] of 681 ng·h/mL. Moreover, the Vd in data set [6] amounted to 0.39 L/kg. Further, the Cmax in data set [7] was 190 ng/mL.

As for `Cc1cc(C)cc([C@@H](CC(C)C)NC(=O)c2cc(COc3cc(C)ccc3C)ccc2CCC(=O)O)c1`, the AUC was determined as 1370 ng·h/mL in data set [8] and 4100 ng·h/mL in data set [2]. In data set [4], this molecule displayed a bioavailability of 54%. The Vd in [9] amounted to 0.67 L/kg. In data set [7], this molecule registered a Cmax of 1350 ng/mL.

As to `Cc1cc(C)cc(Oc2ccc(CCC(=O)O)c(C(=O)N[C@H](CC(C)C)c3cc(C)cc(C)c3)c2)c1`, the AUC in data set [10] was determined as 1370 ng·h/mL; in data set [2], 1430 ng·h/mL. In data set [4], the bioavailability amounted to 21%. The Vd in data set [11] came out at 0.56 L/kg. The molecule also gave a Cmax in data set [7] of 950 ng/mL.

On to `Cc1cc(C)cc(Nc2ccc(CCC(=O)O)c(C(=O)N[C@H](CC(C)C)c3cc(C)cc(C)c3)c2)c1`, for which the AUC in the data set on Rattus norvegicus [12] came out at 2670 ng·h/mL; in the data set on Rattus norvegicus [13] it was 3270 ng·h/mL. The molecule also returned a bioavailability in the data set with Rattus norvegicus [14] of 25%. Also, the Vd in data set [11] turned out to be 1.03 L/kg. Moreover, the Cmax in [7] came out at 1370 ng/mL.
